Test results reported in a melting point compilation (Tetko et al.; mined from patent text by program, amines drawn as free bases though some values may be those of a salt).

| melting point [°C] | SMILES |
| --- | --- |
| 131 to 132 | COc1cccc(CC(=O)O)c1OCCCc1cn(-c2ncc(C(F)(F)F)cn2)nc1C(C)C |
| 140 to 142 | CCOc1ccc(-c2ccc3c(c2)C=C(C(=O)OC(C)(C)C)CCN3C)cc1 |
| 179 to 180 | CC1Cc2ccccc2N1c1nc(=O)c2cccnc2s1 (configuration not stated) |
| 154 to 158 | COc1ccc(S(=O)(=O)N(C(=O)c2snc(Cl)c2Cl)c2ccc(Cl)cc2)cc1 |
| 197 to 205 | COc1ccc(CN(CCC(=O)O)c2nc(NC(=O)Nc3ccccc3OC)nc(Oc3ccc4ccccc4c3)n2)cc1 |
| 137 to 138 | CS(=O)(=O)c1ccc(-n2nc(C(F)(F)F)cc2-c2ccc(-c3cc4ccccc4o3)cc2)cc1 |
| 190 to 192 | C=CC(=O)Oc1c(C(C)c2cc(C(C)(C)C)cc(C(C)(C)C)c2O)cc(C(C)(C)C)cc1C(C)(C)C (configuration not stated) |
| 98 to 101 | C#Cc1ccc(C)cc1CC(=O)O |
| 190 to 194 | COC(=O)N[C@H](C(=O)N[C@@H](Cc1ccccc1)[C@H](O)CN1C[C@H]2CCCC[C@H]2C[C@H]1C(=O)NC(C)(C)C)C(C)(C)S(C)(=O)=O |
| 224 to 226 | Oc1ccc(-c2nc3cc(O)c(Br)cc3o2)cc1F |
| 144 to 145 | CC1Sc2nccn2C1(C)C(O)CCc1ccco1 (configuration not stated) |
| 114 to 122 | O=C1CCC(=O)N1CCSc1ccc(O)cc1 |
| 46 to 47 | CCCCCC1CCC(c2ccc(CC(=O)OC)cc2)CC1 (configuration not stated) |
| 145 to 147 | N#Cc1nc(Cl)nc(N2CCS(=O)CC2)c1Cl |
| 185 | COc1ccc(Br)cc1N(C=NCl)C1CC1 |
| 205 to 207 | S=C(NCc1ccccc1)N1CCc2c([nH]c3ccccc23)C1c1ccc2c(c1)OCO2 (configuration not stated) |
| 291 to 295 | O=C(O)c1cccc(Nc2nccc(-c3cccnc3)n2)c1 |
| 71 to 73 | COc1ccc2c(c1)C(CCCNC(C)=O)CCC2 (configuration not stated) |
| 218 | O=C1NC(=Cc2ccccc2)C(NCc2ccccc2)=C1[N+](=O)[O-] |
| 87 to 90 | CN(CCCCCNC(=NCCSCc1csc(NC(=N)N)n1)NC#N)CCC(c1ccc(Cl)cc1)c1ccccn1 (configuration not stated) |
| 118 to 120 | COC(=O)CCCc1cc2nc(Cl)ccc2n1S(=O)(=O)c1ccc(C)c2ccccc12 |
| 47 | C=CC1(COC(C)=O)OC(OC2C(COCc3ccccc3)OC(OC)C(OCc3ccccc3)C2OCc2ccccc2)C(OC(C)=O)C(OC)C1OC(C)=O (configuration not stated) |
| 169 to 170 | Cc1ccc(-c2nnc(N3CCC4(CC3)OCCO4)nc2-c2ccc(C)cc2)cc1 |
| 137 to 138 | Cc1ccc(OC(=CC(=O)c2ccc(Br)cc2)C(=O)c2ccc(Br)cc2)cc1 |

| melting point [°C] | SMILES |
| --- | --- |
| 193 to 196 | CCOC(=O)C(=O)c1csc(NC(=O)Nc2ccc(OC)cc2)n1 |
| 105 to 108 | O=C(NCc1cccnc1)c1cc2ccnc(N(Cc3ccccc3)Cc3ccccc3)c2[nH]1 |
| 144 to 145 | COC(=O)Cc1nc(-c2ccc(OC)c(OC)c2)c2cc(Cl)ccc2n1 |
| 65 to 69 | Cn1ccnc1SCC(=O)C12CC3CC(CC(C3)C1)C2 |
| 63 to 65 | CC(C)(C)NCC(Cc1ccc(OCc2ccccc2)cc1)NCc1ccc(C(C)(C)C)cc1 (configuration not stated) |
| 174 | COC(=O)COc1cccnc1 |
| 125 to 126 | CCOC(=O)N=C(NCCCc1c[nH]cn1)NCCC(c1ccccc1)c1ccccc1 |
| 108 to 111 | CCc1cn(C(C)(C)C(=O)N(C)C)nc1-c1ccccc1 |
| 192 to 193 | O=C(O)c1[nH]c(-c2ccccc2)cc1-c1ccc(O)cc1 |
| 134 to 135 | CCCc1ccc(C(=O)O)c2ccccc12 |
| 144 to 146 | Cn1c(-c2ccc(-c3nccs3)cc2)cnc1[C@H](Cc1ccccn1)N(C=O)c1cc2cc(Cl)ccc2o1 |
| 244 to 246 | O=C1CC(CN2C(=O)c3ccccc3C2=O)=Nc2ccccc2N1 |
| 156 to 158 | O=C(O)CNC(=O)c1ccc([N+](=O)[O-])cc1F |
| 198 | Nc1cc2oc(=O)[nH]c2cc1[N+](=O)[O-] |
| 72 to 73 | CC1(CCl)Oc2ccc([N+](=O)[O-])cc2O1 (configuration not stated) |
| 32 to 34 | CCCCCCCCCCCCCCCCCCOC(=O)C1CCC2OC2C1 (configuration not stated) |
| 92 to 93 | CC1=C(O)C(=O)C(C)C1 (configuration not stated) |
| 175 to 177 | CNC(=O)N(O)CCCNC(=O)c1cccc(Oc2ccccc2)c1 |
| 98 to 99 | C=CCNC(=O)N1CC(c2ccc(C(C)(C)C)cc2)C1 |
| 178 to 179 | CCc1cc(C(=O)c2ccccc2Cl)c(-n2c(C)nnc2CNC(=O)Nc2cccc(CC(=O)OC(C)(C)C)c2)s1 |
| 99 | CC(=O)Nc1ccccc1S(=O)(=O)NCCCCN1CCN(c2ncccn2)CC1 |
| 197 to 199 | N#Cc1cnn(-c2ccc(Cl)c(Cl)c2Cl)c1NCCO |
| 236 to 238 | O=C1CCC2=C(c3ccc(Cl)cc3)c3ccccc3C2N1 (configuration not stated) |
| 128 | CCOC(=O)C(=NNc1ccc([N+](=O)[O-])cc1)C(C)=O |

| melting point [°C] | SMILES |
| --- | --- |
| 209 to 210 | NC(=O)c1c(F)ccc(OCc2nc(-c3ccc(O)cc3)no2)c1F |
| 109 to 110 | Cc1cnc(NC(=O)C(C)C)o1 |
| 223 to 224 | CC1(Cn2c(=O)oc3ccccc32)Cn2cc([N+](=O)[O-])nc2O1 (configuration not stated) |
| 204 to 206 | CC(C)c1cc2nc(N)sc2cc1Sc1ccc(CCc2ccc(F)cc2)c(CCC2=C(O)CC(C(C)C)OC2=O)c1 (configuration not stated) |
| 222 to 224 | COc1ccc(-n2c(=O)cc(C(F)(F)F)n(C)c2=O)c2c1C(=O)C(C)(C)O2 |
| 74 to 76 | CC(C)(C)[C@H](COC(=O)OCc1ccccc1)NC(=O)[C@@H](CC(=O)OCc1ccccc1)n1ccc(-c2ccc(-c3ccncc3)cc2)c1 |
| 171 to 172 | O=C(O)c1cccc(-c2cccc(CC(=O)N(Cc3ccccc3)C3c4ccccc4CCC3Cc3ccccc3)c2)c1 (configuration not stated) |
| 105 | CCCCc1cn(CC2OC(n3cnc4c(NCc5ccc(OC)cc5)ncnc43)C(O)C2O)nn1 (configuration not stated) |
| 167 to 168 | COc1cc(-c2cccc([N+](=O)[O-])c2)ccc1N |
| 163 to 164 | CC(=O)NCc1c(C)cc(CN2CCN(c3ccc(F)cc3)CC2)cc1C |
| 196 to 197 | CN1C(=O)CC[C@]2(C)c3ccc(Sc4nccc5sccc45)cc3CC[C@@H]12 |
| 170 | CCS(=O)(=O)Nc1cc(-n2cnc(C(F)(F)F)cc2=O)c(F)cc1C#N |
| 89 to 91 | CC(=O)c1ccc2c(c1)CCN(Cc1ccccc1)CC2 |
| 119 to 120 | CSc1cc(C)nc(SC)c1NC(=O)CN1CCN(CCO)CC1 |
| 155 to 158 | COc1ccc2cccc(N3CCN(CCCCOc4ccc5c(n4)NC(=O)NCC5)CC3)c2c1 |
| 100 to 101 | CCOC(=O)C=C(C)C=CC=C(C)C=Cc1c(Cl)cc(OC)c(C)c1Cl |
| 82 | O=C(O)CCCCCc1nc2ccccc2o1 |
| 163 | CN(C)c1ccccc1CC(=O)N1C[C@@H]2SCCC(c3ccccc3)(c3ccccc3)[C@@H]2C1 (racemic) |
| 124 to 126 | Cc1cc(C)c(C(C#N)=CO)c(C)c1 |
| 330 to 332 | O=C(Nc1nnn[nH]1)c1cnc2sc3ccccc3n2c1=O |
| 101 to 104 | CCCc1c(OCCCCCOc2ccc(CCCCC(=O)O)cc2CCC(=O)O)ccc2c1OCCC2=O |
| 242 to 244 | Clc1cc(CCc2ccccn2)c2oc(-c3ccc4[nH]nnc4c3)nc2c1 |
| 224 | O=C1CN(C(=O)Cc2ccccc2Cl)N(Cc2ccc(Cl)cc2)C(=O)N1 |
| 151 to 153 | CCOc1ccnc2c1c(C(C)=O)cn2S(=O)(=O)c1ccccc1 |

| melting point [°C] | SMILES |
| --- | --- |
| 115 to 117 | Cc1ccc(NC(=O)C(=O)N2CCC(Cc3ccccc3)CC2)cc1 |
| 251 to 253 | C/C(=C(\C#N)C(=S)/N=C/N(C)C)N1CCCN(c2ccc(C(F)(F)F)cc2)CC1 |
| 232 to 236 | Cc1cn2c(n1)-c1ccccc1Nc1ccccc1-2 |
| 169 | CCc1c(CNS(=O)(=O)c2cccc(Cl)c2)nn(-c2ccc(Cl)cc2Cl)c1-c1ccc(Br)cc1 |
| 113 to 115 | Cc1sc2c(c1C(=O)CCCCl)C(=O)NCCC2 |
| 87 to 92 | COc1ccc(C(CNc2ncnc3c2ncn3C2OC(CO)C(O)C2O)c2ccccc2)cc1 (configuration not stated) |
| 112 to 114 | C#CCn1c(-c2cc(Cl)nc(Cl)c2)nc(OS(=O)(=O)C(F)(F)F)c(CC)c1=O |
| 286 to 289 | Cn1c(=O)[nH]c2cnc(-c3ccccc3)nc21 |
| 190 to 192 | Cc1ccc(-c2nnc(N3CCOCC3)nc2-c2ccc(C)cc2)cc1 |
| 177 to 178 | CCCn1c(=O)c2[nH]c(C3CCOC3)nc2n(CCC)c1=O (configuration not stated) |
| > 250 | Cc1csc(C(=O)C2C(=O)N(C(N)=O)c3cc(F)cnc32)c1 (configuration not stated) |
| 207 to 211 | CC(c1oc2ccccc2c(=O)c1-c1cccc(F)c1)n1nc(-c2cncnc2)c2c(N)ncnc21 (configuration not stated) |
| 207 to 209 | CCOC(=O)c1cn(-c2ccc(F)cc2C)c2c(C)c([N+](=O)[O-])c(F)cc2c1=O |
| 93 to 95 | OCCc1nccn1CCCCc1ccc(OCc2coc(/C=C/c3ccc(F)cc3F)n2)cc1 |
| 226 to 228 | CC(=O)Nc1ccc(Sc2cccn3nc(Nc4ccc(C5CCN(C(=O)OC(C)(C)C)CC5)cc4)nc23)cc1 |
| 98 | COc1cc2cc(F)cnc2cc1F |
| 226 to 229 | COc1cc(-c2ccccc2)c(OC)cc1Nc1ncnc2cc(OC)c(OC)cc12 |
| 196 to 197 | CCC(C)C(=O)Nc1nn(C)c2c1sc1cc(N)ccc12 (configuration not stated) |
| 206 to 207 | CCCc1nc2c(N)nc3ccccc3c2n1Cc1cc(-c2cccnc2)on1 |
| 139 to 141 | Cc1cnc2cccc(Oc3cc(-c4ccc(C(F)(F)F)cc4)ncn3)c2n1 |
| 104 to 106 | c1ccc2c(c1)nc1n2CCCC1 |

| SMILES | melting point [°C] |
| --- | --- |
| Cc1ccc(C(=O)C2CCN(CCc3c[nH]c4ccccc34)CC2)cc1C | 172 to 173 |
| CCCCCCNP(N)(N)=S | 65 to 70 |
| Cc1cc2[nH]c3c(c2cc1C)CC(N(C)C)CC3 (configuration not stated) | 183 to 187 |
| CCOC(=O)CN1C(=O)C(NC(=O)Nc2ccc(Cl)cc2)N=C(c2ccccc2)c2ccccc21 (configuration not stated) | 228 to 229 |
